In article PMC7957705 (Molecules, 2021):
Like-named read-outs stand apart in the source and are kept apart here. Where a SMILES comes first, the peptide text is derived from it. Bridges are numbered along the chain shown (N, C = ends). Triazole bridges read from a SMILES are 1,4-linked. Where no end group is shown, it is not given here. [ ]: non-standard residue; d: D form. The star is where a group is joined. Benzoyl(4-guanidino) = N=C(N)Nc1ccc(C(=O)*)cc1; Gua = N-terminal guanidino group, N=C(N)*; Pro(4S-NH2) = N[C@@H]1CN[C@H](C(=O)O)C1; Orn(N3) = [N-]=[N+]=NCCC[C@H](N)C(=O)O; Aha = [N-]=[N+]=NCC[C@H](N)C(=O)O; Cav = NC(N)=NOCC[C@H](N)C(=O)O; Hpra = C#CCC[C@H](N)C(=O)O; hCys = N[C@@H](CCS)C(=O)O; Orn = NCCC[C@H](N)C(=O)O; Pra = C#CC[C@H](N)C(=O)O

Columns and labels:
[1] = format: in vitro ADME; conditions: plasma
Procedure: Plasmas from 3 species (including commercially available human healthy donors) were adjusted to pH 7.4 if necessary. Incubations were performed at a concentration of 1 µM of the compound at 37 °C (in the presence of a final concentration of DMSO of 2.5% v/v. The incubations were stopped at 0, 15, 30, 60 and 120 min by methanol. Each time point was run in sextuplets. The sampling plates were then centrifuged (2500 rpm, 45 min, 4 °C) and the supernatants pooled. Samples were analyzed for parent compound by LC-MS/MS. The percentage of parent compound remaining at each time point relative to the 0 min sample is then calculated from LC-MS/MS peak area ratios. Then, the stability in plasma was evaluated by incubating human, rat or mouse plasma with the compound(s) as follows: the product (0.1 µM in TRIS buffer pH 7.4 0.1% BSA) was incubated with the plasma at 37 °C. The disappearance of the product was measured at 15, 45, 120, 240 and 300 min by mass spectrometry. Incubations were carried out in a robot Star (Hamilton France, Villebon-sur-Yvette, France). At each sampling time, 50 µL of the reaction medium was removed and diluted with 100 µL of acetonitrile. After centrifugation (20 min at + 4 °C, 4000 rpm), 75 µL of the supernatants was transferred into a 384 well injection plate. Ten microliters were injected onto UPLC coupled with a XEVO TQS mass spectrometer system (Waters, Milford, MA, USA). The unchanged product is quantified using a reference sample (0.1 µM) prepared during the incubation process. A second reference sample at 0.01 µM is prepared in the same conditions to verify the linearity of the detection method. The peak height (or area) is measured to calculate the half-life of the compound.

[2] = biological target: T1, human MCH-R1 (Homo sapiens, UniProt Q99705); assay: MCH-induced cytosolic Ca2+ ion mobilization, antagonist effect; format: cell-based; conditions: antagonism of MCH-induced cytosolic Ca2+ mobilization; read-out: Ki (functionality, antagonism at MCH-R1)
T1 construct: expressed in transfected cells
Procedure: The functional assay was run onto cells expressing the hMCH-R1 receptor, as described in Wang et al.. In brief, the cells are suspended in DMEM buffer (Invitrogen), then distributed in microplates at a density of 4.104 cells/well. The fluorescent probe (Fluo4 Direct, Invitrogen) mixed with probenecid in Hanks’ Balanced Salt solution (HBSS) (Invitrogen) complemented with 20 mM HEPES (Invitrogen) (pH 7.4) is then added into each well and equilibrated with the cells for 60 min at 37 °C, then 15 min at 22 °C. Then, the assay plates are positioned in a microplate reader (CellLux, PerkinElmer) which is used for the addition of the test compound, reference agonist or HBSS buffer (basal control), and the measurements of changes in fluorescence intensity, which varies proportionally to the free cytosolic Ca^2+ ion concentration. For stimulated control measurements, MCH at 300 nM is added in separate assay wells. The results are expressed as a percentage of the control response to 300 nM MCH. The standard reference agonist is MCH, which is tested in each experiment at several concentrations to generate a concentration-response curve from which its EC50 value is calculated. For the antagonist effect, the results are expressed as a percentage inhibition of the control response to 30 nM MCH, which was added to all tested wells and controls 5 min after the candidate products.

[3] = biological target: T1, human MCH-R1; assay: Binding displacement of [125I]-[Phe13,Tyr19]-MCH at membranes expressing human MCH-R1; conditions: Table 1, S-S bridge pseudopeptides; 2 × 2 independent duplicates; read-out: Km
Procedure: Stable cell lines were obligatory for all receptor programs. We cloned the human receptor and established the cell line as previously described. In brief, HEK293 (HEK) cells were grown in Dulbecco’s Modified Eagle medium (DMEM) supplemented with 10% fetal calf serum, 2 mM glutamine, 100 IU/mL penicillin and […] streptomycin. They were seeded at 5 × 10^6 cells in T75 cm^2 culture flasks. One day later, they were transfected with […] of the pcDNA3.1 (Invitrogen, Groningen, The Netherlands) containing the human MCH-R1 using lipofectamine (Life Technologies, Cergy Pontoise, France), as previously described. One day later, cells were trypsinized, resuspended in a complete DMEM medium containing […] of geneticin and seeded at different dilutions in 96-well plates which were kept for 2 to 3 weeks in a humidified CO2 incubator. At the end of the selection period, isolated clones were picked up, amplified, and further characterized by cyclic AMP experiments. For each cell line, one positive clone was subcloned before being used for all of the cyclic AMP, [^35S]-GTPγS and receptor binding experiments necessary to characterize them. The stable HEK293 cell line expressing the human MCH-R1 was HEK-hMCH-R1.
Membrane preparations were classically made as previously described. In brief, the HEK-hMCH-R cell line was grown to confluency, harvested in PBS buffer containing 2 mM EDTA and centrifuged at 10,000× g for 5 min (4°C). The resulting pellet was suspended in 20 mM Hepes buffer (pH 7.5), containing 5 mM EGTA and homogenized using a Kinematica polytron. The homogenate was then centrifuged (95,000× g, 30 min, 4 °C) and the resulting pellet was suspended in 50 mM HEPES buffer (pH 7.5), containing 10 mM MgCl2 and 2 mM EGTA. Aliquots of membrane preparations were stored at −80 °C until use. Binding has been described in numerous publications and the test was based on Mac Donald et al.’s description. […] Nonspecific binding is determined in the presence of 0.1 μM MCH. […] The filters are dried and then counted for radioactivity in a scintillation counter (Topcount, Packard) using a scintillation cocktail (Microscint 0, Packard). The results are expressed as percentage inhibition of the control radioligand specific binding. The standard reference compound is MCH, which was tested in each experiment at 8 concentrations to obtain a competition curve from which its IC50 is calculated. The high level of assay robustness and reproducibility of each control monitored over several decades (internal data base, Eurofins) and included in every assay ensure results’ reliability even when performed only twice. […]

[4] = human plasma; conditions: 37 °C, up to 300 min

T1 sequence (Q99705 whole entry): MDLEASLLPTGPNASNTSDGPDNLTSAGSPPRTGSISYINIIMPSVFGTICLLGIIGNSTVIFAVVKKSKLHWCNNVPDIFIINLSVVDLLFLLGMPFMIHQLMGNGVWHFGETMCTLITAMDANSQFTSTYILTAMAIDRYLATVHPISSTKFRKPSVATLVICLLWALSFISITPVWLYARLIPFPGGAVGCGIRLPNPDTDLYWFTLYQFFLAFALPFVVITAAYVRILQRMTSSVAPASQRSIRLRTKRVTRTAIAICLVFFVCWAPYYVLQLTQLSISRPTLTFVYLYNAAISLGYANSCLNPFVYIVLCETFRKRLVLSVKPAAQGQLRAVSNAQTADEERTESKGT

**Q.** What does the source list for `CSCC[C@@H]1NC(=O)[C@@H](NC(=O)c2ccc(NC(=N)N)cc2)CCC(=O)NCCC[C@@H](C(=O)N[C@@H](Cc2c[nH]c3ccccc23)C(=O)O)NC(=O)[C@@H]2CCCN2C(=O)[C@H](CCCNC(=N)N)NC(=O)[C@H](C(C)C)NC(=O)[C@H](CCCNC(=N)N)NC(=O)[C@H](CC(C)C)NC1=O` [GPS12744] ({Benzoyl(4-guanidino)}-EMLRVRP[Orn]W-OH; lactam 1-8)?
**A.** half-life ([1]; human): ≥ 5 h; half-life ([1]; mouse): 0.433 ± 0.05 h; half-life ([1]; rat): 2.38 ± 0.2 h

**Q.** What does the source list for `CCSCC[C@@H]1NC(=O)[C@@H](NC(=O)c2ccc(NC(=N)N)cc2)CCC(=O)NCCC[C@@H](C(=O)N[C@@H](Cc2c[nH]c3ccccc23)C(=O)O)NC(=O)[C@@H]2CCCN2C(=O)[C@H](CCCNC(=N)N)NC(=O)[C@H](C(C)C)NC(=O)[C@H](CCCNC(=N)N)NC(=O)[C@H](CC(C)C)NC1=O` [GPS13663] ({Benzoyl(4-guanidino)}-E[hCys](Et)LRVRP[Orn]W-OH; lactam 1-8)?
**A.** half-life ([1]; human): ≥ 5 h; half-life ([1]; mouse): 0.317 ± 0.0167 h; half-life ([1]; rat): 1.57 ± 0.05 h

**Q.** With `CSCC[C@H](NC(=O)[C@H](CCC(=O)O)NC(=O)c1ccc(NC(=N)N)cc1)C(=O)N[C@@H](CC(C)C)C(=O)N[C@@H](CCCNC(=N)N)C(=O)N[C@H](C(=O)N[C@@H](CCCNC(=N)N)C(=O)N1CCC[C@H]1C(=O)N[C@@H](CCCN)C(=O)N[C@@H](Cc1c[nH]c2ccccc12)C(=O)O)C(C)C` [GPS13669] ({Benzoyl(4-guanidino)}-EMLRVRP[Orn]W-OH) as the compound, how does the Ki [2] read?
**A.** Its Ki is 300 nM.

**Q.** Which Ki [2] does the source give for `CCSCC[C@@H]1NC(=O)[C@@H](NC(=O)c2ccc(NC(=N)N)cc2)Cc2cn(nn2)CC[C@@H](C(=O)N[C@@H](Cc2c[nH]c3ccccc23)C(=O)O)NC(=O)[C@@H]2CCCN2C(=O)[C@H](CCCNC(=N)N)NC(=O)[C@H](C(C)C)NC(=O)[C@H](CCCNC(=N)N)NC(=O)[C@H](CC(C)C)NC1=O` [GPS13671] ({Benzoyl(4-guanidino)}-[Pra][hCys](Et)LRVRP[Aha]W-OH; triazole 1-8) here?
**A.** Its Ki is 8 nM.

**Q.** For `CSCC[C@@H]1NC(=O)[C@@H](NC(=O)c2ccc(NC(=N)N)cc2)CCC(=O)NCCC[C@@H](C(=O)N[C@@H](Cc2c[nH]c3ccccc23)C(=O)O)NC(=O)[C@@H]2CCCN2C(=O)[C@H](CCON=C(N)N)NC(=O)[C@H](C(C)C)NC(=O)[C@H](CCCNC(=N)N)NC(=O)[C@H](CC(C)C)NC1=O` [GPS13683] ({Benzoyl(4-guanidino)}-EMLRV[Cav]P[Orn]W-OH; lactam 1-8), which Ki [2] is on record?
**A.** The Ki was 0.15 nM.

**Q.** For `CSCC[C@@H]1NC(=O)[C@@H](NC(=O)c2ccc(NC(=N)N)cc2)CCC(=O)NCCC[C@@H](C(=O)N[C@@H](Cc2c[nH]c3ccccc23)C(=O)O)NC(=O)[C@@H]2C[C@H](N)CN2C(=O)[C@H](CCCNC(=N)N)NC(=O)[C@H](C(C)C)NC(=O)[C@H](CCCNC(=N)N)NC(=O)[C@H](CC(C)C)NC1=O` [GPS13684] ({Benzoyl(4-guanidino)}-EMLRVR[Pro(4S-NH2)][Orn]W-OH; lactam 1-8), which half-life ([1]; human) is on record?
**A.** The half-life was at least 5 h.

**Q.** And the half-life ([1]; mouse)?
**A.** The half-life was 0.433 ± 0.0167 h.

**Q.** And the half-life ([1]; rat)?
**A.** The half-life was 2.25 ± 0.15 h.

**Q.** Which Ki [2] does the source give for `CSCC[C@@H]1NC(=O)[C@@H](NC(=O)c2ccc(NC(=N)N)cc2)CCC(=O)NCCC[C@@H](C(=O)N[C@@H](Cc2c[nH]c3ccccc23)C(=O)O)NC(=O)[C@@H]2CCCN2C(=O)[C@H](CCCNC(=N)N)NC(=O)[C@H](Cc2ccc(O)cc2)NC(=O)[C@H](C(C)C)NC(=O)[C@H](CCCNC(=N)N)NC(=O)[C@H](CC(C)C)NC1=O` [GPS13695] ({Benzoyl(4-guanidino)}-EMLRVYRP[Orn]W-OH; lactam 1-9) here?
**A.** Its Ki is 0.13 nM.

**Q.** For `CSCC[C@@H]1NC(=O)[C@@H](NC(=O)c2ccc(NC(=N)N)cc2)CCn2cc(nn2)CC[C@@H](C(=O)N[C@@H](Cc2c[nH]c3ccccc23)C(=O)O)NC(=O)[C@@H]2CCCN2C(=O)[C@H](CCCNC(=N)N)NC(=O)[C@H](C(C)C)NC(=O)[C@H](CCCNC(=N)N)NC(=O)[C@H](CC(C)C)NC1=O` [GPS14517] ({Benzoyl(4-guanidino)}-[Aha]MLRVRP[Hpra]W-OH; triazole 1-8), which Ki [2] is on record?
**A.** The Ki was 0.022 nM.

**Q.** For `CSCC[C@@H]1NC(=O)[C@@H](NC(=O)c2ccc(NC(=N)N)cc2)Cc2cn(nn2)CCC[C@@H](C(=O)N[C@@H](Cc2c[nH]c3ccccc23)C(=O)O)NC(=O)[C@@H]2CCCN2C(=O)[C@H](CCCNC(=N)N)NC(=O)[C@H](C(C)C)NC(=O)[C@H](CCCNC(=N)N)NC(=O)[C@H](CC(C)C)NC1=O` [GPS14518] ({Benzoyl(4-guanidino)}-[Pra]MLRVRP[Orn(N3)]W-OH; triazole 1-8), which Ki [2] is on record?
**A.** The Ki was 0.027 nM.

**Q.** Which Ki [2] does the source give for `CSCC[C@@H]1NC(=O)[C@@H](NC(=O)c2ccc(NC(=N)N)cc2)CCCn2cc(nn2)C[C@@H](C(=O)N[C@@H](Cc2c[nH]c3ccccc23)C(=O)O)NC(=O)[C@@H]2CCCN2C(=O)[C@H](CCCNC(=N)N)NC(=O)[C@H](C(C)C)NC(=O)[C@H](CCCNC(=N)N)NC(=O)[C@H](CC(C)C)NC1=O` [GPS14519] ({Benzoyl(4-guanidino)}-[Orn(N3)]MLRVRP[Pra]W-OH; triazole 1-8) here?
**A.** The Ki was 0.43 nM.

**Q.** For “GPS11373: S-S bridge: Gua-Cys-Met-Leu-Arg-Val-Arg-Pro-Cys-Trp (Gua-CMLRVRPCW; disulfide 1-8 (inferred))”, which binding affinity constant [3] is on record?
**A.** Its binding affinity constant is 100 nM.

**Q.** Which not cleaved [4] does the source give for “Gua-Glu-Ethionine-Leu-Arg-Val-Arg-Pro-Orn-Trp” here?
**A.** Its not cleaved is “not metabolized at all, 100% of the initial dose found at 300 (5 h)”.

**Q.** With “Gua-Glu-Met-Leu-Arg-Val-Arg-4-NH2-Pro-Orn-Trp” as the compound, how does the not cleaved [4] read?
**A.** The not cleaved was “not metabolized at all, 100% of the initial dose found at 300 (5 h)”.

**Q.** Which not cleaved [4] does the source give for Gua-Glu-Met-Leu-Arg-Val-Arg-Pro-Orn-Trp here?
**A.** The not cleaved was “not metabolized at all, 100% of the initial dose found at 300 (5 h)”.
